Consider seven molecules from patent publication US20230226109A1, “METHOD FOR DIFFERENTIATING INNATE LYMPHOID CELLS FOR IMMUNOTHERAPY” (The Board of Trustees of the Leland Stanford Junior …, priority 2019, published 2023).

Assay [1] deals with peripheral NK cells. The experiment in a line: in vitro differentiation of peripheral NK cells into ielLC1-like cells, co-culture with epithelial feeder cells. It counts as cell-based, human. The procedure:
(A) Protocol for in vitro differentiation of peripheral NK cells into ielLC1-like cells. In brief, PCI13 cells were seeded into a culture plate, then peripheral NK cells were sorted and added to the culture (ratio 10NK:1PCI13) in the presence or not of IL15 (10 ng/mL). After 4 days of co-culture, NK cells were harvested for phenotypic and functional analysis. (B, LEFT) Dot plots show the expression of CD49a and CD103 on gated Lin^−CD45^+CD56^+ NK cells, after culture of NK with PCI13 and IL15 (10 ng/mL) or control conditions. […] (C-D) Functional response of in vitro differentiated ielLC1-like cells. […] (D) After in vitro differentiation, CD49a^− and CD49a^+ cells were sorted and mixed with PCI13 (10^6 NK cells:5.10^6 PCI13) and injected subcutaneously in the flank of NSG mice. Then, tumor volume was measured over time. […] (E) Sorted CD49a^+ and CD49a^− NK cells were assessed for expression of NR4A1, NR4A2, and NR4A3 by qRT-PCR.
In a summary of the protocol for in vitro differentiation of peripheral conventional NK cells into ielLC1-like cells: sorted, enriched, or expanded peripheral NK cells in the presence of IL15 are seeded into culture with cells such as HNSCC, which may be irradiated, or onto plate surfaces that mimic select attributes of these cells. After a suitable period of time for culture, e.g. about 4 days, the differentiated cells are harvested for analysis and effector functions.
• HNSCC cells were harvested from their culture, washed with PBS and counted. • HNSCC cells were then resuspended in media for co-culture, and seeded into plates as follows:
• NK were resuspended with media containing IL-15. • NK cells were added to the co-culture as follows:
• On day 2, half of the supernatant was replaced with fresh media containing IL-15 (20 ng/mL). Harvesting and use of ielLC1-Like Cells. • On day 4, ILC1-like cells were harvested. • Note: The harvested cells were ielLC1-like cells. HNSCC cells were killed during the culture. • ILC1-like cells were washed with PBS and counted. • ILC1-like cells were then used for phenotypic analysis and functional assays.

The test system of assay [2] is peripheral NK cells. The experiment in a line: in vivo differentiation of peripheral NK cells injected intra-tumor into PCI13 tumors. Set-up: species or system NSG mice. The settings on record: IL15 5 μg/mouse every 2 days, tumors harvested after 6 days. The procedure: (A) Protocol used to evaluate the in vivo differentiation of peripheral NK cells into ILC1-like cells. In brief, 10^6 PCI13 were subcutaneously injected in the flank of NSG mice, after 10-15 days (when the tumor were palpable) peripheral NK cells were obtained from blood and were injected intra-tumor. Mice were treated or not with IL15 (5 μg/mouse) every 2 days. After 6 days, tumors were harvested and the phenotype and function of intra-tumoral NK cells were assessed. (B) According to the protocol described in (A), sorted Lin^−CD56^+ NK cells were intra-tumor injected. […] (C-D) According to the protocol described in (A), sorted Lin^−CD56^+CD94^+CD16^− Stage 4b NK cells were intra-tumor injected. (C, LEFT) Dot plots show the expression of CD49a and CD103 on NK cells obtained following intra-tumor injection of sorted stage 4b NK cells, in the presence or not of IL15 in vivo. […]
10^6 PCI13 tumor cells were subcutaneously injected in the flank of NSG mice, after 10-15 days (when the tumor were palpable) peripheral NK cells were obtained from blood and were injected intra-tumor. […] After 6 days, tumors were harvested and the phenotype and function of intra-tumoral NK cells were assessed.

A further assay has as its system NK cells. The experiment in a line: feeder cell-free culture of NK cells, differentiation into ielLC1-like cells. The format is cell-based, human. The settings on record: culture plates with or without E-Cadherin coating, NK cells with IL-15, no feeder cells. The source says: FIG. 7: Co-culture of peripheral NK cells with IL-15 and TGFbeta enhances differentiation into ielLC1-like cells. (A) Using a co-culture system similar to FIG. 5A, NK cells were co-cultured with MDCK (top) or PCI-13 (bottom) in the presence of IL-15 and either the TGFbeta receptor 2 inhibitor ITD1 or the ALK receptor inhibitor SB-431542 or TGFb.
FIG. 11: Feeder cell-free culture of NK cells with extracellular matrix components can induce ielLC1-like cell differentiation. Culture plates with or without E-Cadherin coating was used to culture NK cells with IL-15.

The mark [3] stands for this setting: NK cells with IL-15 and PCI-13 carcinoma cells.
Setting [4] is: NK cells co-cultured with MDCK or PCI-13 in the presence of IL-15.

Take `Cc1ccccc1N=Nc1ccc(NC(=O)c2ccnn2C)c(C)c1` [CH-223191]: the ielLC1-like cell differentiation entry in the assay with peripheral NK cells [1] (setting [3]) is reported as “profound reduction of ielLC1-like differentiation”.

As for TGFb, the ielLC1-like cell differentiation entry in the assay on peripheral NK cells [1] (setting [4]) was “stimulation of the ielLC1-like phenotype”.

As to `CCOC(=O)C1=C(C)NC2=C(C(=O)CC(C)(C)C2)C1c1ccc(-c2ccccc2)cc1` (centres unmarked) [ITD1], in the assay on peripheral NK cells [1] (setting [4]), the ielLC1-like cell differentiation result is “significant inhibition of ielLC1-like cell differentiation”.

As for “IL-15: 14-15 kDa glycoprotein cytokine (BioLegend; Cat #570306)”, the “differentiation of peripheral NK into ielLC1-like cells in vivo” value in the assay on peripheral NK cells [2] was “promotes differentiation of peripheral NK into ielLC1-like cells in vivo”. Also, the “differentiation of peripheral NK into ielLC1-like cells (CD49a+, CD49a+CD103+)” value with peripheral NK cells [1] (NK with PCI13 (ratio 10NK:1PCI13), IL15 10 ng/mL, 4 days) is reported as “promotes differentiation of peripheral NK into ielLC1-like cells”.

`O=Cc1c2[nH]c3ccccc3c2cc2[nH]c3ccccc3c12` [FICZ]: the ielLC1-like cell differentiation entry with peripheral NK cells [1] (setting [3]) was “promoted the ielLC1-like differentiation”.

`NC(=O)c1ccc(-c2nc(-c3ccc4c(c3)OCO4)c(-c3ccccn3)[nH]2)cc1` [SB-431542]: the ielLC1-like cell differentiation result in the assay on peripheral NK cells [1] (setting [4]) was “significant inhibition of ielLC1-like cell differentiation”.

B1: E-Cadherin: coating of culture plates, extracellular matrix component, used without feeder cells (protein, UniProt P12830 155-882, looked up)
Cadherin-1: DWVIPPISCPENEKGPFPKNLVQIKSNKDKEGKVFYSITGQGADTPPVGVFIIERETGWLKVTEPLDRERIATYTLFSHAVSSNGNAVEDPMEILITVTDQNDNKPEFTQEVFKGSVMEGALPGTSVMEVTATDADDDVNTYNAAIAYTILSQDPELPDKNMFTINRNTGVISVVTTGLDRESFPTYTLVVQAADLQGEGLSTTATAVITVTDTNDNPPIFNPTTYKGQVPENEANVVITTLKVTDADAPNTPAWEAVYTILNDDGGQFVVTTNPVNNDGILKTAKGLDFEAKQQYILHVAVTNVVPFEVSLTTSTATVTVDVLDVNEAPIFVPPEKRVEVSEDFGVGQEITSYTAQEPDTFMEQKITYRIWRDTANWLEINPDTGAISTRAELDREDFEHVKNSTYTALIIATDNGSPVATGTGTLLLILSDVNDNAPIPEPRTIFFCERNPKPQVINIIDADLPPNTSPFTAELTHGASANWTIQYNDPTQESIILKPKMALEVGDYKINLKLMDNQNKDQVTTLEVSVCDCEGAAGVCRKAQPVEAGLQIPAILGILGGILALLILILLLLLFLRRRAVVKEPLLPPEDDTRDNVYYYDEEGGGEEDQDFDLSQLHRGLDARPEVTRNDVAPTLMSVPRYLPRPANPDEIGNFIDENLKAADTDPTAPPYDSLLVFDYEGSGSEAASLSSLNSSESDKDQDYDYLNEWGNRFKKLADMYGGGEDD
Take B1: in the assay on NK cells, the “formation of ielLC1-like cells” value was “enhanced formation of the ielLC1-like cells”.
